What was measured:
[1] = molecular target: T1, UGT2B7 (Homo sapiens, UniProt P16662); assay: Drug metabolism assessed as recombinant human UGT2B7 assessed as O-glucuronidation at 10 to 400 uM incubated for 60 mins by LC-MS/MS analysis
T1 sequence (P16662 whole entry): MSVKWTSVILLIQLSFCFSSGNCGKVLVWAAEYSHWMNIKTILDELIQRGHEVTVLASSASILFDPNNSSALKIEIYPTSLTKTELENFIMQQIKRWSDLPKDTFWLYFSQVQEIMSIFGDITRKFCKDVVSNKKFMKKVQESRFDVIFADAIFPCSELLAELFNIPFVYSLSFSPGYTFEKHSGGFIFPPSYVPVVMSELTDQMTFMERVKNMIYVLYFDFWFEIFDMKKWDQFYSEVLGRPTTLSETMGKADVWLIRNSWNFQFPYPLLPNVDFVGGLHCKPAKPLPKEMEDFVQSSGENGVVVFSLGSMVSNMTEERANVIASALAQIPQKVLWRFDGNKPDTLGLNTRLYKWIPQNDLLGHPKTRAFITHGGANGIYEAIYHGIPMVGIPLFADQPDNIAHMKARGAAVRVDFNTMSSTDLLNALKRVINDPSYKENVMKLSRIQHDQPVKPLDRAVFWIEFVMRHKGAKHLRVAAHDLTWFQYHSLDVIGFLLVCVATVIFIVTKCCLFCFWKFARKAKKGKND

[2] = molecular target: T2, UDP-glucuronosyltransferase 1A8 (Homo sapiens, UniProt Q9HAW9); assay: Drug metabolism assessed as recombinant human UGT1A8 assessed as O-glucuronidation at 100 uM incubated for 60 mins by LC-MS/MS analysis; type: ADME; settings: recombinant enzyme, 1 h
T2 sequence (Q9HAW9 whole entry): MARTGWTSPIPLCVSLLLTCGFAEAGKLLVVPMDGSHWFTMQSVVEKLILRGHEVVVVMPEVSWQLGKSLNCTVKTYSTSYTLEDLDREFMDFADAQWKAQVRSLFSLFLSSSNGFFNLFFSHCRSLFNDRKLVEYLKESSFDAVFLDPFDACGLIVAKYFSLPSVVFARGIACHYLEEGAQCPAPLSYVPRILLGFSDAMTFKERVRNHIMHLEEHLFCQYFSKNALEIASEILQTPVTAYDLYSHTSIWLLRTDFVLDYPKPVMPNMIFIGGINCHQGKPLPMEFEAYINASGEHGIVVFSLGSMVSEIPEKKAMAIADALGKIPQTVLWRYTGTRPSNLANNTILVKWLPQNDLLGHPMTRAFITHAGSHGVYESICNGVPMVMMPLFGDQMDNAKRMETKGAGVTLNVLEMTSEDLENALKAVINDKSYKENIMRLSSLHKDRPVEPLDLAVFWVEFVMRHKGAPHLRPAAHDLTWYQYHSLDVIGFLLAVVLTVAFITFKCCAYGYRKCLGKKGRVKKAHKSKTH

[3] = molecular target: T3, UDP-glucuronosyltransferase 1A1 (Homo sapiens, UniProt P22309); assay: Drug metabolism assessed as recombinant human UGT1A1 assessed as O-glucuronidation at 100 uM incubated for 60 mins by LC-MS/MS analysis; type: ADME; settings: recombinant enzyme, 1 h
T3 sequence (P22309 whole entry): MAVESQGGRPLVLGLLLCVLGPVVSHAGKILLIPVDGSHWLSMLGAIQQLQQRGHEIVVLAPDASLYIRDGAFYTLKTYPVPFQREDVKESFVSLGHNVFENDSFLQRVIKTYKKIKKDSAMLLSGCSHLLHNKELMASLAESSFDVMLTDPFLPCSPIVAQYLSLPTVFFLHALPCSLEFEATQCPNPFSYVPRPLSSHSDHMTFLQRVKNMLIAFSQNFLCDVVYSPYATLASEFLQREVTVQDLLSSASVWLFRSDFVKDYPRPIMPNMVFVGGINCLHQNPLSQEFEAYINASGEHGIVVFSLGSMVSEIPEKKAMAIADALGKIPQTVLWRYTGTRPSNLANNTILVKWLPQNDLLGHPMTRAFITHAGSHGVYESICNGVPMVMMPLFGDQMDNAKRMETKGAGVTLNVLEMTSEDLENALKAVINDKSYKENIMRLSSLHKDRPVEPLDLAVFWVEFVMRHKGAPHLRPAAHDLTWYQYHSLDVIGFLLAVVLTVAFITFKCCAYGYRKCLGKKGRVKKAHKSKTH

[4] = molecular target: T4, UDP-glucuronosyltransferase 2B15 (Homo sapiens, UniProt P54855); assay: Drug metabolism assessed as recombinant human UGT2B15 assessed as O-glucuronidation at 100 uM incubated for 60 mins by LC-MS/MS analysis; type: ADME; settings: recombinant enzyme, 1 h
T4 sequence (P54855 whole entry): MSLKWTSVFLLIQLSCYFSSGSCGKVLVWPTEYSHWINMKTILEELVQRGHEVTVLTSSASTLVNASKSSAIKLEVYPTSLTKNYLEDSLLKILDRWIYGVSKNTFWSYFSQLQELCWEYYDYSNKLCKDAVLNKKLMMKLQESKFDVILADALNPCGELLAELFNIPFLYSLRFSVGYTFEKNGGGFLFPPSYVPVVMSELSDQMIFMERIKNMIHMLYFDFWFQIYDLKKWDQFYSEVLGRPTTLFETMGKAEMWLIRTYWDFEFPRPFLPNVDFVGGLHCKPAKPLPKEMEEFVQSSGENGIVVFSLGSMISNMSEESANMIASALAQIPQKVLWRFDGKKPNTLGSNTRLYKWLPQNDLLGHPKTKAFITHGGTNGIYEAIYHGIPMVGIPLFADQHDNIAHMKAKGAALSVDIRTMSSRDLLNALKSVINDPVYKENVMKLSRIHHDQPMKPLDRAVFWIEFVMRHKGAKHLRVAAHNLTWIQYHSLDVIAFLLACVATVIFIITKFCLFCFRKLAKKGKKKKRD

[5] = molecular target: T5, UDP-glucuronosyltransferase 1A7 (Homo sapiens, UniProt Q9HAW7); assay: Drug metabolism assessed as recombinant human UGT1A7 assessed as N-glucuronidation at 100 uM incubated for 60 mins by LC-MS/MS analysis; type: ADME; settings: recombinant enzyme, 1 h
T5 sequence (Q9HAW7 whole entry): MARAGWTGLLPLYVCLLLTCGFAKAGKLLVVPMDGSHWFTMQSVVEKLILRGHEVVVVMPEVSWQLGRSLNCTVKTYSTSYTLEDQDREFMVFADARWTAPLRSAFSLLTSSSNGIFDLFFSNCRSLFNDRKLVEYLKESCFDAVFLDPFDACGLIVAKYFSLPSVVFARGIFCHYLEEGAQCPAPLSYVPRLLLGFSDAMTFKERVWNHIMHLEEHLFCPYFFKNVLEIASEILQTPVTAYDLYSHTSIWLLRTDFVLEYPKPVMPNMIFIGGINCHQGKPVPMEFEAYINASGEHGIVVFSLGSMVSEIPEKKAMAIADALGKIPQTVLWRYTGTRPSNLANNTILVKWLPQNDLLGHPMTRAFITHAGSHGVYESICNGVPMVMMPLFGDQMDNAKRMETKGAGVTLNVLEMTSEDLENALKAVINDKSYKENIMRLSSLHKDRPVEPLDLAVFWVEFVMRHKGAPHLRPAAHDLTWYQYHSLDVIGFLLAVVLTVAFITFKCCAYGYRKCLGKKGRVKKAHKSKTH

For O=C(CCCN1CCC(O)(c2ccc(Cl)cc2)CC1)c1ccc(F)cc1 [HALOPERIDOL], the Km at 1 h, 400 µM [1] was 45 µM, the Drug metabolism [2] was “metabolite_not_detected” and the Drug metabolism [3] was “metabolite_not_detected”. The Drug metabolism [4] was “metabolite_not_detected” and the Drug metabolism [5] was “metabolite_not_detected”.
